# Data reported in patent EP3178809A1, “HYBRID MOLECULE WITH STRUCTURAL AND ACTIVITY ELEMENTS OF RESVERATROL AND DIALLYL SULFIDE” (Albert-Ludwigs-Universität Freiburg, priority 2015, dated 2017).
# “And” between values parts separate entries of the source, which are not always exact repeats. Identical values can stand only once.
# How the values were obtained:
# NOX1 = target: T1, NOX1 (Homo sapiens, UniProt Q9Y5S8); experiment: Parallel control measurement of NOX1 activity / extracellular superoxide anion production; type: cell-based
# T1 construct: endogenous in cells
# T1 sequence (Q9Y5S8 1-564): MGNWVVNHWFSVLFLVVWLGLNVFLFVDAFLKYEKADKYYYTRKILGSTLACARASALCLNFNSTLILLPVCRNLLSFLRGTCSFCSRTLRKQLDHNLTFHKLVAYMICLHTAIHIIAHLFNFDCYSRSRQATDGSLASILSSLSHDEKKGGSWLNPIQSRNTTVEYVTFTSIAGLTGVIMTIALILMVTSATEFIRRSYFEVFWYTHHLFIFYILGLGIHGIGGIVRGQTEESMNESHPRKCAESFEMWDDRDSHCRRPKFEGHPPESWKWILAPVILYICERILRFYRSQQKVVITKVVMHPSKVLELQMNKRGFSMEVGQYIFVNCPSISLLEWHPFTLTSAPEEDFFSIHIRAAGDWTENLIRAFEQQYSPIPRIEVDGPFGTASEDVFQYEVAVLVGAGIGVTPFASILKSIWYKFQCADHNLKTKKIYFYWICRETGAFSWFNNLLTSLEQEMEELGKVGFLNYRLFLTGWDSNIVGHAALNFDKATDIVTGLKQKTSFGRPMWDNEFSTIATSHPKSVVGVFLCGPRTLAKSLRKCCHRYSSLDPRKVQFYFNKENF
# T1 sequence (P13498 1-195 partner): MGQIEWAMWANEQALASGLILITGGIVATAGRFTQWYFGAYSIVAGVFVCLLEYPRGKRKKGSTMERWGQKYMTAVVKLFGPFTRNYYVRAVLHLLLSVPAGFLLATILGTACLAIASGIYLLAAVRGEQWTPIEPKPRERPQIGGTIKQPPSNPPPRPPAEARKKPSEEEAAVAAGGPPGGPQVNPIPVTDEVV
# Experimental: Inkubationsbedingungen wie in Figur 11. Zusätzlich wurden 5 µM AEBSF oder 100 µM AEBSF zugegeben. 5 µM AEBSF führen zu einer Hemmung um nur 20 % von NOX1, während 100 µM mehr als 90 % hemmen, wie parallel durchgeführte Kontrollmessungen ergeben haben. Die geringfügige Hemmung durch 5 µM AEBSF reicht bereits aus, den Synergieeffekt aufzuheben und die Apoptoseinduktion auf das Niveau der alleinige Gabe von DADS zu drücken. Dies zeigt, dass tatsächlich die NOX-stimulierende Wirkung von Resveratrol für den Synergieeffekt notwendig war.
# (§1) Die Messung der extrazellulären Superoxidanionenkonzentration von Tumorzellen sowie die Bestrahlungstechnik mit Niedrigdosis-Gammastrahlung wird in der Arbeit Temme and Bauer, 2013 beschrieben. Die Hemmung der NOD wird bei Scheit and Bauer, 2015, beschrieben. Viele Versuchsergebnisse wurden in den Figuren dargestellt.
# Um zu klären, ob der durch das Hybridmolekül gebündelte Synergieeffekt tatsächlich durch die NOX-stimulierende Wirkung des von Resveratrol abgeleiteten Anteils mitgetragen wird, wurde die Wirkung des Hybridmoleküls in Gegenwart von 5 µM AEBSF untersucht. Für diese Hemmstoffkonzentration wurde in Parallelexperimenten ermittelt, dass sie eine Hemmung der extrazellulären Superoxidanionenproduktion um ca. 20 % zur Folge hat. […]
# [1] = target: T2, protektive Katalase von Tumorzellen (Homo sapiens, UniProt P04040); experiment: Inactivation of protective catalase: sensitisation of MKN-45 cells to peroxynitrite-induced apoptosis; type: cell-based; details: 150 µM DADS for 20 min or 50 mM 3-AT, apoptosis 100 min after PON
# T2 construct: endogenous in cells; host or cells: MKN-45 (human gastric carcinoma cell line)
# T2 sequence (P04040 2-527 limits assumed): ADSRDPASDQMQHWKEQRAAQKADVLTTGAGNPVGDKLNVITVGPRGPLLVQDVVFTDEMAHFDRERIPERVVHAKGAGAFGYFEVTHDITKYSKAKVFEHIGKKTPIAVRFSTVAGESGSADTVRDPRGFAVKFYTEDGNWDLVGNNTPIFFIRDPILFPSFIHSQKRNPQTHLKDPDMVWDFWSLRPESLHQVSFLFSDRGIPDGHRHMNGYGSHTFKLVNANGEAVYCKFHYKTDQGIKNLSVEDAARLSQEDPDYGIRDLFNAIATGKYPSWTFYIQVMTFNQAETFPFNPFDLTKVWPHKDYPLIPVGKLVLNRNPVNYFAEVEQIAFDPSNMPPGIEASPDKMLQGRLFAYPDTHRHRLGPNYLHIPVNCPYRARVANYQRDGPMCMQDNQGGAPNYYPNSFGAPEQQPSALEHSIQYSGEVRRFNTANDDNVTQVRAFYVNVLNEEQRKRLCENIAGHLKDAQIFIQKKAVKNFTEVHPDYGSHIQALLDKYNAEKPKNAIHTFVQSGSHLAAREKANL
# Experimental: Figur 8: DADS führt zur Inaktivierung der protektiven Katalase von Tumorzellen • A. Humane MKN-45 Tumorzellen enthielten entweder zunächst keine Zusätze (Kontrolle), 50 mM des Katalasehemmers 3-AT oder wurden für 20 Minuten mit 150 µM DADS behandelt. Nach einem Waschschritt und der Verdünnung der Zellkonzentration auf 6000 Zellen / 100 µl Ansatz wurde Peroxynitrit (PON) in den angegebenen Konzentrationen zugegeben. Nach 100 Minuten erfolgte die Bestimmung der apoptotischen Zellen in Doppelansätzen. Wie die Kontrolle zeigt, sind die Tumorzellen vor der Apoptose-auslösenden Wirkung von Peroxynitrit geschützt.
# Figur 8 A zeigt, dass die kurzzeitige Behandlung von Tumorzellen mit DADS den gleichen Effekt hat, wie die Zugabe des Katalasehemmstoffs 3-Aminotriazol (3-AT), nämlich die Zellen für die Apoptose-auslösende Wirkung von exogen zugegebenem Peroxynitrit (PON) zu aktivieren. Die Sensitivierung für die Wirkung von PON ermöglicht die selektive Testung der Inaktivierung der membranständigen Katalase von Tumorzellen (Heinzelmann and Bauer, 2010; Böhm et al., 2015). Im Gegensatz zu DADS führt DAS zu keiner Inaktivierung der Katalase (Figur 8 F). […]
# [2] = system: nichtmaligne, diploide humane Fibroblasten Alpha-1; experiment: Apoptosis induction in non-malignant cells (morphological criteria); type: cell-based, human; details: Alpha-1 fibroblasts, 3 Stunden, 37 °C, 5 % CO2
# Experimental: Figur 6: Diallyldisulfid und Dipropyldisulfid, nicht aber Diallylsulfid lösen selektiv in Tumorzellen interzelluläres Signaling und Apoptose aus. • A. 12 500 humane Magenkarzinomzellen MKN-45 oder 10 000 nichtmaligne, diploide humane Fibroblasten Alpha-1 wurden in Doppelansätzen in Serum-haltigen Medium mit den angegebenen Konzentrationen an Diallyldisulfid (DADS), Dipropyldisulfid (DPDS) oder Diallylsulfid (DAS) versetzt. Nach 3 Stunden bei 37 ° C, 5 % CO2 wurden die Prozentsätze apoptotischer Zellen bestimmt. […] Nach 3 Stunden bei 37 ° C, 5 % CO2 wurden die Prozentsätze apoptotischer Zellen bestimmt. Das Ergebnis zeigt, dass die durch DADS ausgelöste Apoptose von der Wirkung von Singulettsauerstoff, Superoxidanionen, Caspase-8, NO und HOCI abhängig ist.
# Die Daten basieren allesamt auf der quantitativen Bestimmung der Apoptose mittels der klassischen morphologischen Kriterien Kernkondensation, Kernfragmentation und Membrane Blebbing nach definierten Inkubationszeiten bei 37°C. Parallel wurden diese Kriterien mithilfe der TUNEL-Reaktion gesichert, wodurch die für die Apoptose charakteristischen DNA-Strangbrüche nachgewiesen wurden, und die Abhängigkeit der Apoptoseinduktion von Caspase-3 und Caspase-9 überprüft, wodurch sichergestellt war, dass die Apoptose über den mitochondrialen Weg abläuft. […]
# NO Dioxygenase = experiment: Test for inhibition of NO dioxygenase (enhanced effect of NO donor DEA NONOate on superoxide-producing cells); type: cell-based
# Text: Die Messung erfordert, dass durch geeignete Maßnahmen, wie bei Scheit und Bauer, 2015 beschrieben, die Tumorzellkatalase maximal inhibiert, die Hemmwirkung von H2O2 auf ·NO und Peroxynitrit durch Anwesenheit eines Katalasemimetikums verhindert und de novo Synthese von ·NO durch die Anwesenheit des NOS Inhibitors L-NAME verhindert wird.
# as §1
# [3] = system: humane Magenkarzinomzellen MKN-45; experiment: Apoptosis induction in tumour cells (morphological criteria, duplicate assays); type: cell-based, human; details: for Konzentration, bei der der maximale Apoptose-auslösende Effekt erzielt wird: MKN-45, 3,5 Stunden Inkubation; for Apoptoseinduktion in Tumorzellen: MKN-45, 3 Stunden, 37 °C, 5 % CO2; for Konzentration für optimale Wirkung: induction of apoptosis in tumour cells, single agents, combinations with Resveratrol, or hybrid
# Experimental: Nach 3 Stunden bei 37 ° C, 5 % CO2 wurden die Prozentsätze apoptotischer Zellen bestimmt. […] Nach 3 Stunden bei 37 ° C, 5 % CO2 wurden die Prozentsätze apoptotischer Zellen bestimmt.
# Die Daten basieren allesamt auf der quantitativen Bestimmung der Apoptose mittels der klassischen morphologischen Kriterien Kernkondensation, Kernfragmentation und Membrane Blebbing nach definierten Inkubationszeiten bei 37°C.
# Die Ansätze erfolgten bei einer Zelldichte von 125 000 Zellen/ml in 96-Loch-Platten mit einem Reaktionsvolumen von 100 µl. Alle Ansätze wurden als Doppelansätze geführt und pro Messpunkt wurden mindestens 200 Zellen morphologisch bewertet. Eine detaillierte Aufstellung der verwendeten Medien, Inhibitoren, Zellen ist in den Arbeiten Scheit and Bauer, 2015; Bauer und Zarkovic, 2014; Bauer et al., 2014; Bauer, 2015 beschrieben.
# Um zu klären, ob das Hybridmolekül aus Struktur- und Wirkungselementen von Resveratrol und Diallyldisulfid in der Lage ist, Apoptose in Tumorzellen zu induzieren, und dabei zu prüfen, ob sich durch die Kombination der Einzelfunktionen in einem Molekül der Synergieeffekt bündeln ließ, wurden steigende Konzentrationen des Hybridmoleküls zu Magenkarzinomzellen der Linie MKN-45 gegeben. Die als Parallelansätze geführten Ansätze wurden sowohl ohne als auch in Anwesenheit von 2 mM des Singulettsauerstofffängers Histidin inkubiert, um zu prüfen, ob der durch das Hybridmolekül ausgelöste Effekt durch Singulettsauerstoff vermittelt wird. Zum Vergleich wurde das gleiche Experiment mit steigenden Konzentrationen DADS durchgeführt, ebenfalls mit und ohne Histidinzugabe. Nach 3,5 Stunden Inkubation wurde der Prozentsatz apoptotischer Zellen bestimmt.
compound,measurement,setting,value
"NCCc1ccc(S(=O)(=O)F)cc1 [AEBSF, 4-(2-Aminoethyl)benzenesulfonyl fluoride]",Hemmung von NOX1 / der extrazellulären Superoxidanionenproduktion,NOX1; 5 µM,20%
same,Hemmung von NOX1 / der Superoxidanionensynthese,NOX1; 100 µM,> 95% and > 90%
"C=CCSSCC=C [DADS, Diallyldisulfid]",Wirkung auf die protektive Katalase (sensitisation to peroxynitrite),[1],gleichen Effekt wie der Katalasehemmstoff
same,Apoptoseinduktion in normalen Zellen,[2],nicht aber bei den normalen Zellen
same,Hemmung der NO Dioxygenase,NO Dioxygenase,Hemmung dieses Enzyms
same,EC40,"[3]; Homo sapiens, MKN-45, 3.5 h, read-out: Konzentration für den gleichen Effekt (ca. 40 Prozent des Maximalwertes der Apoptoseinduktion)",1.1 µM
same,"Konzentration, bei der der maximale Apoptose-auslösende Effekt erzielt wird",[3]; alleinige Gabe,10 µM
same,Apoptoseinduktion in Tumorzellen,[3],konzentrationsabhängig zur Apoptose
"C=CCSCC=C [DAS, Diallylsulfid]",Wirkung auf die protektive Katalase (sensitisation to peroxynitrite),[1],keine Wirkung auf die protektive Katalase
same,Apoptoseinduktion in Tumorzellen,[3],keine Aktivität
"CCCSSCCC [DPDS, Dipropyldisulfid]",Apoptoseinduktion in normalen Zellen,[2],nicht aber bei den normalen Zellen
same,Apoptoseinduktion in Tumorzellen,[3],konzentrationsabhängig zur Apoptose
C=CCSSCCCOc1cc(/C=C/c2ccc(O)cc2)cc(OCCCSSCC=C)c1 [Hybridmolekül],Prozent des Maximalwertes der Apoptoseinduktion,"[3]; 1 nM, MKN-45, 3,5 Stunden",ca. 40 Prozent
same,"Konzentration, bei der der maximale Apoptose-auslösende Effekt erzielt wird",[3],0.01 µM
same,Konzentration für optimale Wirkung,[3],3 to 30 nM
same,Steigerung der Wirkung durch Zugabe von Einzelkomponenten,"[3]; plus 0,9 µM Resveratrol, 0.3 µM DADS or 2,5 µM NOR-NOHA, MKN-45, 3,5 Stunden",nicht steigern
same,wirksamer als Diallyldisulfid,"[3]; shift of concentration-effect curves, apoptosis in MKN-45",~1000 -fach
O=c1c(O)c(-c2ccc(O)c(O)c2)oc2cc(O)cc(O)c12 [Quercitin],Hemmung der NO Dioxygenase,NO Dioxygenase,Hemmung dieses Enzyms
CC(=O)O[C@H]1C(=O)[C@@]2(C)[C@H]([C@H](OC(=O)c3ccccc3)[C@]3(O)C[C@H](OC(=O)[C@H](O)[C@@H](NC(=O)c4ccccc4)c4ccccc4)C(C)=C1C3(C)C)[C@]1(OC(C)=O)CO[C@@H]1C[C@@H]2O [Taxol],Hemmung der NO Dioxygenase,NO Dioxygenase,Hemmung dieses Enzyms
same,wirksamer in Bezug auf Induktion der Apoptose in Tumorzellen als Diallyldisulfid,[3]; from Tabelle 2,≥ 10 -fach
same,Konzentration für optimale Wirkung,[3],900 to 3800 nM
Epothilon B,Hemmung der NO Dioxygenase,NO Dioxygenase,Hemmung dieses Enzyms
